Measured values reported in ChEMBL document CHEMBL1122452, “Mitomycin C analogues with secondary amines at position 7” (J Med Chem, 1983).

Legend:
[1] = test system: P388; assay: Leukopenia % change in WBC at optimal dose on 3rd day.; assay type: functional, Mus musculus
[2] = test system: P388; assay: Maximum % T/C against P-388 murine leukemia cells in mice.; assay type: functional, Mus musculus
[3] = test system: P388; assay: Maximum % T/C with mitomycin C against P-388 murine leukemia cells in mice.; assay type: functional, Mus musculus
[4] = test system: P388; assay: Minimum effective dose required for antitumor activity against P-388 murine leukemia cells in mice.; assay type: functional; conditions: Mus musculus, read-out: MED
[5] = E1/2 value related to the saturated calomal electrode.; assay type: ADME; design: unit not given here
[6] = test system: P388; assay: Optimal dose required for antitumor activity against P-388 murine leukemia cells in mice.; assay type: functional, Mus musculus
[7] = test system: B16; assay: Average weight change after ip administration of a dose of 1 mg/kg/day in B-16 melanoma in mice; assay type: functional, Mus musculus; conditions: route intraperitoneal
[8] = test system: B16; assay: Average weight change after ip administration of a dose of 2 mg/kg/day in B-16 melanoma in mice; assay type: functional, Mus musculus; conditions: route intraperitoneal
[9] = test system: B16; assay: Average weight change after ip administration of a dose of 3 mg/kg/day in B-16 melanoma in mice; assay type: functional, Mus musculus; conditions: route intraperitoneal
[10] = test system: B16; assay: Average weight change after ip administration of a dose of 4 mg/kg/day in B-16 melanoma in mice; assay type: functional, Mus musculus; conditions: route intraperitoneal
[11] = test system: B16; assay: Tumor free survivors on 62nd day after ip administration of a dose of 1 mg/kg/day in B-16 melanoma in mice; assay type: functional, Mus musculus; conditions: route intraperitoneal
[12] = test system: B16; assay: Tumor free survivors on 62nd day after ip administration of a dose of 2 mg/kg/day in B-16 melanoma in mice; assay type: functional, Mus musculus; conditions: route intraperitoneal
[13] = test system: B16; assay: Tumor free survivors on 62nd day after ip administration of a dose of 3 mg/kg/day in B-16 melanoma in mice; assay type: functional, Mus musculus; conditions: route intraperitoneal
[14] = test system: B16; assay: Median survival time (% T/C) after ip administration of a dose of 1 mg/kg/day in B-16 melanoma in mice; assay type: functional, Mus musculus; conditions: route intraperitoneal
[15] = test system: B16; assay: Median survival time (% T/C) after ip administration of a dose of 2 mg/kg/day in B-16 melanoma in mice; assay type: functional, Mus musculus; conditions: route intraperitoneal
[16] = test system: B16; assay: Median survival time (% T/C) after ip administration of a dose of 3 mg/kg/day in B-16 melanoma in mice; assay type: functional, Mus musculus; conditions: route intraperitoneal
[17] = test system: B16; assay: Average weight change after ip administration of a dose of 6 mg/kg/day in B-16 melanoma in mice; assay type: functional, Mus musculus; conditions: route intraperitoneal
[18] = test system: B16; assay: Tumor free survivors on 62nd day after ip administration of a dose of 4 mg/kg/day in B-16 melanoma in mice; out of 10; assay type: functional, Mus musculus; conditions: route intraperitoneal
[19] = test system: B16; assay: Tumor free survivors on 62nd day after ip administration of a dose of 6 mg/kg/day in B-16 melanoma in mice; out of 10; assay type: functional, Mus musculus; conditions: route intraperitoneal
[20] = test system: B16; assay: Median survival time (% T/C) after ip administration of a dose of 4 mg/kg/day in B-16 melanoma in mice; assay type: functional, Mus musculus; conditions: route intraperitoneal
[21] = test system: B16; assay: Median survival time (% T/C) after ip administration of a dose of 6 mg/kg/day in B-16 melanoma in mice; assay type: functional, Mus musculus; conditions: route intraperitoneal

Row | SMILES | Change in WBC [1] [%] | T/C [2] [%] | T/C [3] [%] | minimal effective dose [4] [mg/kg] | E1/2 [5] | Dose [6] [mg/kg] | also measured
1 | COC12[C@@H]3N[C@@H]3CN1C1=C(C(=O)C(N3CCCC(O)C3)=C(C)C1=O)[C@@H]2COC(N)=O (stereo not given in full) | 55 | 250 | 161 | 0.2 | 0.26 | 12.8 | –
2 | COC12[C@@H]3N[C@@H]3CN1C1=C(C(=O)C(N3CC3c3ccccc3)=C(C)C1=O)[C@@H]2COC(N)=O (stereo not given in full) | 38 | 311 | 200 | 0.2 | – | 3.2 | –
3 | COC12[C@@H]3N[C@@H]3CN1C1=C(C(=O)C(N3CCC(O)C3)=C(C)C1=O)[C@@H]2COC(N)=O (stereo not given in full) | – | 163 | 219 | 0.8 | 0.37 | 25.6 | –
4 | COC12[C@@H]3N[C@@H]3CN1C1=C(C(=O)C(N3CCN(C=O)CC3)=C(C)C1=O)[C@@H]2COC(N)=O (stereo not given in full) | 16 | 294 | 224 | 0.2 | 0.23 | 6.4 | Average weight change [7]: 0 g; Average weight change [8]: -0.1 g; Average weight change [9]: -0.4 g; Average weight change [10]: -1 g; Cures [11]: 1; Cures [12]: 5; Cures [13]: 6; T/C [14]: 210%; T/C [15]: 275%; T/C [16]: 310%; Average weight change [17]: -0.7 g; Cures [18]: 6; Cures [19]: 2; T/C [20]: 310%; T/C [21]: 88%
5 | COC12[C@@H]3N[C@@H]3CN1C1=C(C(=O)C(N3CCCCC3)=C(C)C1=O)[C@@H]2COC(N)=O (stereo not given in full) | – | 183 | 322 | 0.2 | 0.27 | 12.8 | –
6 | COC12[C@@H]3N[C@@H]3CN1C1=C(C(=O)C(N3CCNCC3)=C(C)C1=O)[C@@H]2COC(N)=O (stereo not given in full) | – | 200 | 288 | 0.2 | 0.26 | 12.8 | –
7 | COC12[C@@H]3N[C@@H]3CN1C1=C(C(=O)C(N3CCC(O)(O)CC3)=C(C)C1=O)[C@@H]2COC(N)=O (stereo not given in full) | – | 231 | 219 | 0.2 | 0.28 | 25.6 | –
8 | COC12[C@@H]3N[C@@H]3CN1C1=C(C(=O)C(N3CCOCC3)=C(C)C1=O)[C@@H]2COC(N)=O (stereo not given in full) | 82 | 271 | 224 | 0.4 | 0.39 | 25.6 | –
9 | COC12[C@@H]3N[C@@H]3CN1C1=C(C(=O)C(N(C)CCN(C)C)=C(C)C1=O)[C@@H]2COC(N)=O (stereo not given in full) | – | 267 | 211 | 0.8 | 0.33 | 25.6 | –
10 | COC12[C@@H]3N[C@@H]3CN1C1=C(C(=O)C(N(C)C)=C(C)C1=O)[C@@H]2COC(N)=O (stereo not given in full) | – | 238 | 325 | 0.2 | – | 25.6 | –
11 | COC12[C@@H]3N[C@@H]3CN1C1=C(C(=O)C(N3CCC(N4CCCCC4)CC3)=C(C)C1=O)[C@@H]2COC(N)=O (stereo not given in full) | 29 | 194 | 200 | 1.6 | 0.28 | 12.8 | –
12 | COC12[C@@H]3N[C@@H]3CN1C1=C(C(=O)C(N3CCN(C)CC3)=C(C)C1=O)[C@@H]2COC(N)=O (stereo not given in full) | 34 | 261 | 183 | 0.2 | 0.24 | 3.2 | –
13 | CCN(CC)C1=C(C)C(=O)C2=C(C1=O)[C@H](COC(N)=O)C1(OC)[C@@H]3N[C@@H]3CN21 (stereo not given in full) | – | 222 | 211 | 1.6 | 0.26 | 25.6 | –
14 | COC12[C@@H]3N[C@@H]3CN1C1=C(C(=O)C(N3CC3C)=C(C)C1=O)[C@@H]2COC(N)=O (stereo not given in full) | 24 | 233 | 250 | 0.1 | 0.32 | 3.2 | –
